From ChEMBL document CHEMBL3044825, “Synthesis and in vitro microbial activities of amides of pyridoquinolone” (2011)

Columns and labels:
Assay type in all cases: functional
Details in all cases: read-out: IZ
Pseudomonas aeruginosa = test: Antibacterial activity against Pseudomonas aeruginosa at 100 ug/ml by cup-plate method
Staphylococcus aureus = test: Antibacterial activity against Staphylococcus aureus at 100 ug/ml by cup-plate method
Bacillus subtilis = test: Antibacterial activity against Bacillus subtilis at 100 ug/ml by cup plate method
Candida albicans = test: Antifungal activity against Candida albicans at 100 ug/ml by cup-plate method
Escherichia coli = test: Antibacterial activity against Escherichia coli at 100 ug/ml by cup-plate method

Row | SMILES | zone of inhibition at 100 µg/mL (Pseudomonas aeruginosa) [mm] | zone of inhibition at 100 µg/mL (Staphylococcus aureus) [mm] | zone of inhibition at 100 µg/mL (Bacillus subtilis) [mm] | zone of inhibition at 100 µg/mL (Candida albicans) [mm] | zone of inhibition at 100 µg/mL (Escherichia coli) [mm]
1 | O=C(NC(=S)Nc1ccc([N+](=O)[O-])cc1)c1cn(CCO)c2c(cc(O)c3ncccc32)c1=O | 10 | 10 | 9 | 4 | 12
2 | Cc1cccc(NC(=S)NC(=O)c2cn(CCO)c3c(cc(O)c4ncccc43)c2=O)c1 | 9 | 9 | 8 | 3 | 9
3 | O=C(NC(=S)Nc1cccc(Cl)c1)c1cn(CCO)c2c(cc(O)c3ncccc32)c1=O | 9 | 9 | 10 | 3 | 10
4 | O=C(NC(=S)Nc1ccc(O)cc1)c1cn(CCO)c2c(cc(Cl)c3ncccc32)c1=O | 11 | 12 | 11 | 5 | 12
5 | O=C(NC(=S)Nc1ccccc1[N+](=O)[O-])c1cn(CCO)c2c(cc(Cl)c3ncccc32)c1=O | – | – | 9 | 4 | 10
6 | O=C(NC(=S)Nc1ccc([N+](=O)[O-])cc1)c1cn(CCO)c2c(cc(Cl)c3ncccc32)c1=O | 9 | 11 | 12 | 5 | 10
7 | Cc1ccccc1NC(=S)NC(=O)c1cn(CCO)c2c(cc(Cl)c3ncccc32)c1=O | 4 | 6 | 8 | 2 | 0
8 | Cc1cccc(NC(=S)NC(=O)c2cn(CCO)c3c(cc(Cl)c4ncccc43)c2=O)c1 | 10 | 10 | 9 | 4 | 11
9 | O=C(NC(=S)Nc1cccc(Cl)c1)c1cn(CCO)c2c(cc(Cl)c3ncccc32)c1=O | 9 | 8 | 10 | 3 | 9
10 | O=C(NC(=S)Nc1ccccc1)c1cn(CCO)c2c(cc(O)c3ncccc32)c1=O | 10 | – | – | 4 | –
11 | O=C(NC(=S)Nc1cccc(O)c1)c1cn(CCO)c2c(cc(O)c3ncccc32)c1=O | 7 | 8 | 10 | 3 | 9
12 | COc1ccc(NC(=S)NC(=O)c2cn(CCO)c3c(cc(O)c4ncccc43)c2=O)cc1 | 8 | 8 | 6 | 2 | 8
13 | Cc1ccc(C)c(NS(=O)(=O)c2ccc(NC(=O)c3cn(CCO)c4c(cc(Cl)c5ncccc54)c3=O)cc2)c1 | 10 | 10 | 9 | 4 | 10
14 | O=C(Nc1ccc(S(=O)(=O)Nc2ccccc2)cc1)c1cn(CCO)c2c(cc(O)c3ncccc32)c1=O | 10 | 9 | 8 | 3 | 9
15 | O=C(Nc1ccc(S(=O)(=O)Nc2cccc(Cl)c2)cc1)c1cn(CCO)c2c(cc(O)c3ncccc32)c1=O | 8 | 8 | 9 | 3 | 9
16 | COc1ccc(NS(=O)(=O)c2ccc(NC(=O)c3cn(CCO)c4c(cc(O)c5ncccc54)c3=O)cc2)cc1 | 8 | 10 | 11 | 4 | 8
17 | O=C(Nc1ccc(S(=O)(=O)Nc2ccc([N+](=O)[O-])cc2)cc1)c1cn(CCO)c2c(cc(O)c3ncccc32)c1=O | 10 | 10 | 11 | 4 | 12
18 | Cc1cccc(NS(=O)(=O)c2ccc(NC(=O)c3cn(CCO)c4c(cc(O)c5ncccc54)c3=O)cc2)c1 | 11 | 11 | 12 | 5 | 10
19 | Cc1ccc(C)c(NS(=O)(=O)c2ccc(NC(=O)c3cn(CCO)c4c(cc(O)c5ncccc54)c3=O)cc2)c1 | 11 | 11 | 9 | 4 | 10
20 | O=C(NC(=S)Nc1ccccc1)c1cn(CCO)c2c(cc(Cl)c3ncccc32)c1=O | 9 | 9 | 11 | 3 | 10

Row | SMILES | zone of inhibition at 100 µg/mL (Pseudomonas aeruginosa) [mm] | zone of inhibition at 100 µg/mL (Staphylococcus aureus) [mm] | zone of inhibition at 100 µg/mL (Bacillus subtilis) [mm] | zone of inhibition at 100 µg/mL (Candida albicans) [mm] | zone of inhibition at 100 µg/mL (Escherichia coli) [mm]
21 | O=C(Nc1ccccc1[N+](=O)[O-])c1cn(CCO)c2c(cc(O)c3ncccc32)c1=O | 9 | 10 | 11 | 4 | 9
22 | Cc1ccccc1NC(=O)c1cn(CCO)c2c(cc(O)c3ncccc32)c1=O | – | – | – | 0 | 9
23 | Cc1ccc(NC(=O)c2cn(CCO)c3c(cc(O)c4ncccc43)c2=O)cc1 | 9 | 9 | 8 | 3 | 10
24 | O=C(Nc1ccc(S(=O)(=O)Nc2cccc(Cl)c2)cc1)c1cn(CCO)c2c(cc(Cl)c3ncccc32)c1=O | 10 | 11 | 9 | 4 | 10
25 | COc1ccccc1NS(=O)(=O)c1ccc(NC(=O)c2cn(CCO)c3c(cc(Cl)c4ncccc43)c2=O)cc1 | 5 | – | – | – | 5
26 | COc1ccc(NS(=O)(=O)c2ccc(NC(=O)c3cn(CCO)c4c(cc(Cl)c5ncccc54)c3=O)cc2)cc1 | 10 | 9 | 10 | 3 | 9
27 | O=C(Nc1ccc(S(=O)(=O)Nc2ccc([N+](=O)[O-])cc2)cc1)c1cn(CCO)c2c(cc(Cl)c3ncccc32)c1=O | 9 | 9 | 10 | 3 | 11
28 | Cc1ccccc1NS(=O)(=O)c1ccc(NC(=O)c2cn(CCO)c3c(cc(Cl)c4ncccc43)c2=O)cc1 | 9 | 9 | 10 | 3 | 9
29 | O=C(Nc1ccccc1)c1cn(CCO)c2c(cc(Cl)c3ncccc32)c1=O | – | 12 | – | 5 | 12
30 | O=C(Nc1cccc(Cl)c1)c1cn(CCO)c2c(cc(Cl)c3ncccc32)c1=O | 7 | 8 | 9 | 3 | 7
31 | O=C(Nc1ccc(Cl)cc1)c1cn(CCO)c2c(cc(Cl)c3ncccc32)c1=O | 6 | – | 7 | – | 6
32 | COc1ccccc1NC(=O)c1cn(CCO)c2c(cc(Cl)c3ncccc32)c1=O | 8 | 9 | 10 | 3 | 8
33 | O=C(Nc1ccccc1[N+](=O)[O-])c1cn(CCO)c2c(cc(Cl)c3ncccc32)c1=O | – | – | 10 | 4 | –
34 | O=C(Nc1cccc([N+](=O)[O-])c1)c1cn(CCO)c2c(cc(Cl)c3ncccc32)c1=O | 9 | 9 | 6 | 3 | 9
35 | O=C(Nc1ccc([N+](=O)[O-])cc1)c1cn(CCO)c2c(cc(Cl)c3ncccc32)c1=O | – | – | – | 4 | 9
36 | Cc1cccc(NC(=O)c2cn(CCO)c3c(cc(Cl)c4ncccc43)c2=O)c1 | 10 | 10 | 9 | 4 | 10
37 | O=C(Nc1ccc(Cl)cc1)c1cn(CCO)c2c(cc(O)c3ncccc32)c1=O | – | – | 10 | 5 | 10
38 | COc1ccc(NC(=O)c2cn(CCO)c3c(cc(O)c4ncccc43)c2=O)cc1 | 10 | 10 | 12 | 5 | 11
39 | C[C@@H]1[C@H](O)[C@@H](C)/C=C/C=C/C=C/C=C/C=C/C=C/C=C/[C@H](O[C@@H]2O[C@H](C)[C@@H](O)[C@H](N)[C@@H]2O)C[C@@H]2O[C@](O)(C[C@@H](O)C[C@@H](O)[C@H](O)CC[C@@H](O)C[C@@H](O)CC(=O)O[C@H]1C)C[C@H](O)[C@H]2C(=O)O [AMPHOTERICIN B] | – | – | – | 9 | –
40 | O=C(O)c1cn(C2CC2)c2cc(N3CCNCC3)c(F)cc2c1=O [CIPROFLOXACIN] | 17 | 17 | 16 | – | –
